Results from ChEMBL document CHEMBL1201862, “PubChem BioAssay data set” (2004).
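Exposure lasted 48 hours, with cells grown in 96-well plates and compounds tested at five concentrations. Abbreviation: GI50, concentration required for 50% inhibition of growth.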 The source made the active and inactive calls. No stated cut-off is given here; in the data, active = GI50 up to about 1.1 µM and inactive = higher.

What was measured:
Assay in all cases: growth of human tumour cells (NCI), 48 h
[1] = system: SF-539
[2] = system: NCI-H460
[3] = system: SR
[4] = system: BT-549
[5] = system: MDA-MB-435
[6] = system: HOP-92
[7] = system: TK-10
[8] = system: UACC-257
[9] = system: OVCAR-8
[10] = system: NCI-H522
[11] = system: UO-31
[12] = system: NCI-H226
[13] = system: HCT-15
[14] = system: MOLT-4
[15] = system: NCI-H23
[16] = system: HCT-116
[17] = system: EKVX
[18] = system: SF-295
[19] = system: UACC-62
[20] = system: U-251
[21] = system: HT-29
[22] = system: MCF7
[23] = system: OVCAR-5
[24] = system: PC-3
[25] = system: M14
[26] = system: A498
[27] = system: ACHN
[28] = system: HCC 2998
[29] = system: 786-0
[30] = system: CAKI-1
[31] = system: RXF 393
[32] = system: SF-268
[33] = system: SW-620
[34] = system: A549
[35] = system: HOP-62
[36] = system: OVCAR-4
[37] = system: Hs-578T
[38] = system: SK-MEL-2
[39] = system: KM12
[40] = system: SK-OV-3
[41] = system: COLO 205
[42] = system: DU-145
[43] = system: OVCAR-3
[44] = system: T47D
[45] = system: MDA-MB-231
[46] = system: HL-60
[47] = system: Malme-3M
[48] = system: SNB-19
[49] = system: SNB-75
[50] = system: SK-MEL-5
[51] = system: NCI/ADR-RES
[52] = system: RPMI-8226
[53] = system: LOX IMVI
[54] = system: SN12C
[55] = system: CCRF-CEM
[56] = system: IGROV-1
[57] = system: SK-MEL-28
[58] = system: K562

With `N[C@H](C(=O)O)[C@@H]1CC(Br)=NO1` the GI50 [1] was 97.7 µM (inactive), the GI50 [2] was 42.2 µM (inactive) and the GI50 [3] was 44.1 µM (inactive). The GI50 [4] was 88.9 µM (inactive), the GI50 [5] was 95.3 µM (inactive) and the GI50 [6] was > 100 µM (inactive). For the same compound, the GI50 [7] was 47.1 µM (inactive), the GI50 [8] was > 100 µM (inactive) and the GI50 [9] was 85.5 µM (inactive). The GI50 [10] was 77.4 µM (inactive), the GI50 [11] was > 100 µM (inactive) and the GI50 [12] was > 100 µM (inactive). For the same compound, the GI50 [13] was 54.1 µM, the GI50 [14] was 59.3 µM (inactive) and the GI50 [15] was > 100 µM (inactive). The GI50 [16] was 52.4 µM (inactive), the GI50 [17] was 73.3 µM (inactive) and the GI50 [18] was 73.6 µM (inactive). For the same compound, the GI50 [19] was 85.5 µM (inactive), the GI50 [20] was > 100 µM (inactive) and the GI50 [21] was 57.5 µM (inactive). For the same compound, the GI50 [22] was 41.5 µM (inactive), the GI50 [23] was 61.4 µM (inactive) and the GI50 [24] was > 100 µM (inactive). The GI50 [25] was 53.5 µM (inactive), the GI50 [26] was > 100 µM (inactive) and the GI50 [27] was 73.5 µM (inactive). The GI50 [28] was 59.6 µM (inactive), the GI50 [29] was 99.8 µM (inactive) and the GI50 [30] was 90.2 µM (inactive). For the same compound, the GI50 [31] was > 100 µM (inactive), the GI50 [32] was > 100 µM (inactive) and the GI50 [33] was 48.6 µM (inactive). For the same compound, the GI50 [34] was 87.5 µM (inactive), the GI50 [35] was 61.9 µM (inactive) and the GI50 [36] was > 100 µM (inactive). For the same compound, the GI50 [37] was > 100 µM (inactive), the GI50 [38] was > 100 µM (inactive) and the GI50 [39] was 75.2 µM (inactive). The GI50 [40] was 69.5 µM (inactive), the GI50 [41] was 71.3 µM (inactive) and the GI50 [42] was > 100 µM (inactive). The GI50 [43] was > 100 µM (inactive), the GI50 [44] was > 100 µM (inactive) and the GI50 [45] was > 100 µM (inactive). The GI50 [46] was > 100 µM (inactive), the GI50 [47] was > 100 µM (inactive) and the GI50 [48] was > 100 µM (inactive). The GI50 [49] was 62.4 µM (inactive), the GI50 [50] was 54.5 µM (inactive) and the GI50 [51] was > 100 µM (inactive).

`Cc1ccc2c(c1)C(C(=O)N[C@@H]1C(=O)N3[C@@H]1SC(C)(C)[C@@H]3C(=O)O)OCCC2` (stereo partly drawn) was tested, and the GI50 [1] was > 100 µM (inactive), the GI50 [2] was > 100 µM (inactive) and the GI50 [3] was > 100 µM (inactive). For the same compound, the GI50 [4] was > 100 µM (inactive), the GI50 [5] was > 100 µM (inactive) and the GI50 [6] was > 100 µM (inactive). For the same compound, the GI50 [7] was > 100 µM (inactive), the GI50 [52] was > 100 µM (inactive) and the GI50 [8] was > 100 µM (inactive). The GI50 [9] was > 100 µM (inactive), the GI50 [10] was > 100 µM (inactive) and the GI50 [53] was > 100 µM (inactive). The GI50 [54] was > 100 µM (inactive), the GI50 [11] was > 100 µM (inactive) and the GI50 [12] was > 100 µM (inactive). For the same compound, the GI50 [13] was > 100 µM, the GI50 [55] was > 100 µM (inactive) and the GI50 [14] was > 100 µM (inactive). The GI50 [15] was > 100 µM (inactive), the GI50 [16] was > 100 µM (inactive) and the GI50 [17] was > 100 µM (inactive). For the same compound, the GI50 [18] was > 100 µM (inactive), the GI50 [19] was > 100 µM (inactive) and the GI50 [20] was > 100 µM (inactive). For the same compound, the GI50 [21] was > 100 µM (inactive), the GI50 [22] was > 100 µM (inactive) and the GI50 [56] was > 100 µM (inactive). For the same compound, the GI50 [23] was > 100 µM (inactive), the GI50 [24] was > 100 µM (inactive) and the GI50 [25] was > 100 µM (inactive). For the same compound, the GI50 [26] was > 100 µM (inactive), the GI50 [27] was > 100 µM (inactive) and the GI50 [28] was > 100 µM (inactive). The GI50 [29] was > 100 µM (inactive), the GI50 [30] was > 100 µM (inactive) and the GI50 [31] was > 100 µM (inactive). For the same compound, the GI50 [32] was > 100 µM (inactive), the GI50 [33] was > 100 µM (inactive) and the GI50 [34] was > 100 µM (inactive). The GI50 [35] was > 100 µM (inactive), the GI50 [36] was > 100 µM (inactive) and the GI50 [37] was > 100 µM (inactive). For the same compound, the GI50 [38] was > 100 µM (inactive), the GI50 [39] was > 100 µM (inactive) and the GI50 [40] was > 100 µM (inactive). The GI50 [57] was > 100 µM (inactive), the GI50 [41] was > 100 µM (inactive) and the GI50 [42] was > 100 µM (inactive). For the same compound, the GI50 [58] was > 100 µM (inactive), the GI50 [43] was 87.1 µM (inactive) and the GI50 [44] was > 100 µM (inactive). The GI50 [45] was > 100 µM (inactive), the GI50 [46] was > 100 µM (inactive) and the GI50 [48] was > 100 µM (inactive). The GI50 [49] was > 100 µM (inactive), the GI50 [50] was > 100 µM (inactive) and the GI50 [51] was > 100 µM (inactive).
